What was measured:
HepG-2 cells [1] = experiment: Western blot analysis of apoptosis-related proteins; assay type: cell-based, human; conditions: 2.5, 5 and 10 μM, 24 h
Experimental: To explore the mechanisms underlying apoptosis of compound 1b in HepG-2 cells, the characteristics of apoptosis including p53, caspase 3 and PARP cleavage were examined. […] The features of apoptosis appeared to occur in a dose-dependent manner. Furthermore, we measured the effect of 1b on expression of anti-apoptotic protein Bcl-2 and pro-apoptotic protein Bax in HepG-2 cells.
HepG-2 cells (1.0 × 10^6 cells/well) were seeded in six-well plates. After treatment with compound 1b for 24 h, the preparation of total protein samples from the culture cells for immunoblotting was carried out as previously described. For gel electrophoresis (Novex® NuPAGE® SDS-PAG, Thermo, Waltham, MA, USA), 30–50 μg of protein was used per well. Then the proteins were separated by SDS-PAGE and electroblotted to nitrocellulose membrane. The membrane was incubated with the following indicated antibody: Bcl-2, Bax, caspase-3, p53, PARP and β-actin (Cell Signaling Technology, Beverly, MA, USA) for 12 h at 4 °C. The antibodies were used in […] 5% BSA-TBS-T. The blots were washed four times and then incubated with horseradish peroxidase-conjugated secondary antibody (Santa Cruz Biotechnology Laboratories. Santa Cruz, CA, USA) for 1.5 h at room temperature. β-Actin antibody was used for equal loading.

[2] = test system: A549 human lung adenocarcinoma cell line; experiment: MTT antiproliferative assay, A549; assay type: cell-based; conditions: 48 h treatment
Experimental: (§1) The antiproliferative activity of 1b–12b against three human cancer cell lines (include HepG-2 human hepatoma cell line, Hela human cervical carcinoma cell line and A549 human lung adenocarcinoma cell line) and NIH/3T3 mouse embryonic fibroblast cells were evaluated by the MTT assay (Table 2). […] For Hela cells, the antiproliferative activity of some of the derivatives were similar to that of cis-DDP. […] We selected compound 1b and cis-DDP to generate growth-inhibitory curves (Figure 1) against HepG-2 cells and Hela cells.
(§2) A MTT assay was developed to monitor mammalian cell survival and proliferation in vitro [29]. HepG-2 cells, Hela and A549 cells from the China Center for Type Culture Collection (CCTCC, Wuhan, China) were cultivated in RPMI-1640 medium supplemented with 10% fetal bovine serum (ν/ν), 100 U/mL penicillin, and […] streptomycin. Cells (5 × 10^3 cell/well) at the log phase of their growth cycle were added to each well of a 96-well plate and incubated for 24 h at 37 °C in a humidified atmosphere of 5% CO2. Then, cells were treated with or without test compounds at different concentrations. After 48 h, 5 mg/mL MTT solution (20 μL per well) was added. Cells were incubated at 37 °C. After 4 h, the MTT solution was removed and DMSO was added to each well (150 μL). Eight to twelve minutes later, the optical density (OD) values were measured at room temperature at a wavelength of 595 nm on a FilterMax F3/F5 Microplate Reader (Molecular Devices, Sydney, Australia). In this experiment, 5 mg/mL of cisplatin was used as the positive control and 0.1% DMSO was used as the negative reference. Each assay was carried out at least three times.

HepG-2 cells [3] = experiment: Flow cytometric analysis of cell cycle distribution (PI); assay type: cell-based, human; conditions: 24 h, control 9.97%
Excerpt: Cell cycle arrest is an important sign for inhibition of proliferation and the series of events that take place in a cell leading to its division and replication. […] Compound 1b was chosen for intensive mechanism study on HepG-2 cells because of its highest selectivity index (SI) value of 14.5. After the inhibitory effect of 1b on cell proliferation was observed, we next assessed the effect on the cell cycle distribution of HepG-2 cells by flow cytometry (Figure 3). […] This represented a remarkable difference from 9.97% in the control group (p < 0.05). These findings confirmed that compound 1b could influence HepG-2 cell cycle progression at low micromolar concentrations in a dose-dependent manner.
For flow cytometric analysis of the DNA content, HepG-2 cells (2.0 × 10^5 cells/well) in exponential growth were plated in 6-well plates and incubated for 24 h and then incubated with different concentrations (2.5, 5 and 10 μmol/L) of compound 1b at 37 °C for 24 h. After 24 h treatment, cells were collected, centrifuged, and fixed with ice-cold ethanol (70%) overnight 4 °C. The cells were washed twice with PBS and then treated with lysis buffer containing RNase A (Sigma, St. Louis, MO, USA), which was kept in a lukewarm bath at 37 °C, for 30 min, sequentially, and stained with PI and kept in the dark for 30 min [30]. Then, the samples were analyzed by a flow cytometer (FACSCalibur, BD Accuri^TM C6 BD Instruments Inc., New York, NY, USA). Each experiment was performed in triplicate. DNA histograms were analyzed using Mod Fit (version 3.2) for Windows (Verity Software House, New York, NY, USA).

HepG-2 cells [4] = experiment: Cellular apoptosis by Annexin V-FITC/PI flow cytometry; assay type: cell-based, human; conditions: 24 h; for total percentage of apoptotic cells (early and late, Q2 + Q3): vehicle 2.921%
Experimental: To examine the potency of the cancer cell apoptosis effect of 1b on HepG-2 cells, the number of apoptotic cells was monitored using flow cytometry. […] The total percentage of apoptotic cells (early and late, Q2 + Q3) was 2.921% when treated with vehicle alone.
HepG-2 cells (2.0 × 10^5 cells/well) were plated in a 6-well plate and allowed to adhere. After 24 h, the medium was replaced with fresh culture medium containing compound 1b at final concentrations of 2.5, 5, and 10 μmol/L at 37 °C. After 24 h, the cells were harvested and staining solution was added (containing 5 μL Annexin V-FITC and 5 μL PI). The cells were then incubated for 15 min at 20–25 °C in the dark. The samples were then detected in a FACScalibur BD Accuri^TM C6 flow cytometer. Analyses were performed by the software supplied with the instrument.

[5] = test system: NIH/3T3 mouse embryonic fibroblast cells; experiment: MTT cytotoxicity assay, NIH/3T3 normal cells; assay type: cell-based; conditions: 48 h treatment, read-out: IC50 NIH/3T3 Cell Line
Experimental: as §1, §2

[6] = test system: HepG-2 human hepatoma cell line; experiment: MTT antiproliferative assay, HepG-2; assay type: cell-based; conditions: for IC50: MTT, 48 h treatment; for SI (selectivity index): SI = IC50, NIH/3T3/IC50, HepG-2
Experimental: as §1, §2

[7] = test system: Hela human cervical carcinoma cell line; experiment: MTT antiproliferative assay, Hela; assay type: cell-based; conditions: 48 h treatment
Experimental: as §1, §2

HepG-2 cells [8] = experiment: Plate colony formation (clonogenic survival) assay; assay type: cell-based, human; conditions: different concentrations of 1b
Experimental: To assess the antiproliferative effect of compound 1b (Figure 2), we analyzed clonogenicity of HepG-2 cells after the treatment with 1b for 48 h.
Additionally, we used plate colony formation assay to evaluate the colony formation ability of HepG-2 cells. The cells were seeded in the complete medium in 6-well plate at 600 cells per well. After attachment, cells were exposed to different concentrations of compound 1b. After 7 days, the cells were fixed with paraformaldehyde for 20 min and stained with 1% crystal violet solution for 30 min to observe colonies.

SMILES | PARP cleavage (HepG-2 cells [1]) | expression of anti-apoptotic protein Bcl-2 (HepG-2 cells [1]) | expression of pro-apoptotic protein Bax (HepG-2 cells [1]) | level of cleaved caspase-3 (HepG-2 cells [1]) | level of p53 (HepG-2 cells [1]) | IC50 [2] [µM] | percentage of cells at the G2/M phase (HepG-2 cells [3]; 2.5 μmol/L) [%] | percentage of cells at the G2/M phase (HepG-2 cells [3]; 5 μmol/L) [%] | percentage of cells at the G2/M phase (HepG-2 cells [3]; 10 μmol/L) [%] | fold percentage of apoptotic cells in comparison with the control group (HepG-2 cells [4]; 2.5 μmol/L) [fold] | total percentage of apoptotic cells (early and late, Q2 + Q3) (HepG-2 cells [4]; 2.5 μmol/L) [%] | fold percentage of apoptotic cells in comparison with the control group (HepG-2 cells [4]; 5 μmol/L) [fold] | total percentage of apoptotic cells (early and late, Q2 + Q3) (HepG-2 cells [4]; 5 μmol/L) [%] | fold percentage of apoptotic cells in comparison with the control group (HepG-2 cells [4]; 10 μmol/L) [fold] | total percentage of apoptotic cells (early and late, Q2 + Q3) (HepG-2 cells [4]; 10 μmol/L) [%] | IC50 [5] [µM] | IC50 [6] [µM] | SI (selectivity index) [6] | IC50 [7] [µM] | clonogenicity / plate colony formation of HepG-2 cells (HepG-2 cells [8])
COc1cc(C2CC(c3ccc(F)cc3)=NN2C(N)=S)cc(OC)c1OC (stereo not drawn) [1b] | PARP was cleaved into fragmentation of 89 kDa | decrease in expression | increase in expression | dramatically increased | dramatically increased | > 100 | 25.06 | 56.15 | 71.25 | 1.33 | 3.889 | 2.26 | 6.581 | 3.53 | 10.309 | > 100 | 6.78 ± 1.44 | >14.75 | 7.63 ± 1.35 | significantly reduced cell viability in a dose-dependent fashion
CCOc1cc(C2CC(c3ccccc3O)=NN2C(N)=S)cc(Br)c1O (stereo not drawn) [9b, 3-(2-Hydroxyphenyl)-5-(3-ethyoxyl-4-hydroxy-5-bromothiophenyl)-4,5-dihydro-1H-pyrazole-1-carbothioamide] | – | – | – | – | – | > 100 | – | – | – | – | – | – | – | – | – | > 100 | 32.2 ± 2.83 | >3.10 | 7.74 ± 1.63 | –
N.N.[Cl][Pt][Cl] [cis-DDP, cisplatin, reference compound] | – | – | – | – | – | 29.5 ± 3.3 | – | – | – | – | – | – | – | – | – | 4.88 ± 1.93 | 7.57 ± 0.98 | 0.64 | 5.28 ± 0.66 | –

— paper PMC6151802, “A New Series of Cytotoxic Pyrazoline Derivatives as Potential Anticancer Agents that Induce Cell Cycle Arrest and Apoptosis” (Molecules : A Journal of Synthetic Chemistry and Natural …, 2017)
